In paper doi:10.1101/208439v1 (biorxiv, 2017):
pIC50: −log10 of the molar value.

Target: T1, GLP (Homo sapiens, UniProt Q9H9B1)
T1 construct: gene EHMT1
T1 sequence (Q9H9B1 1-1298): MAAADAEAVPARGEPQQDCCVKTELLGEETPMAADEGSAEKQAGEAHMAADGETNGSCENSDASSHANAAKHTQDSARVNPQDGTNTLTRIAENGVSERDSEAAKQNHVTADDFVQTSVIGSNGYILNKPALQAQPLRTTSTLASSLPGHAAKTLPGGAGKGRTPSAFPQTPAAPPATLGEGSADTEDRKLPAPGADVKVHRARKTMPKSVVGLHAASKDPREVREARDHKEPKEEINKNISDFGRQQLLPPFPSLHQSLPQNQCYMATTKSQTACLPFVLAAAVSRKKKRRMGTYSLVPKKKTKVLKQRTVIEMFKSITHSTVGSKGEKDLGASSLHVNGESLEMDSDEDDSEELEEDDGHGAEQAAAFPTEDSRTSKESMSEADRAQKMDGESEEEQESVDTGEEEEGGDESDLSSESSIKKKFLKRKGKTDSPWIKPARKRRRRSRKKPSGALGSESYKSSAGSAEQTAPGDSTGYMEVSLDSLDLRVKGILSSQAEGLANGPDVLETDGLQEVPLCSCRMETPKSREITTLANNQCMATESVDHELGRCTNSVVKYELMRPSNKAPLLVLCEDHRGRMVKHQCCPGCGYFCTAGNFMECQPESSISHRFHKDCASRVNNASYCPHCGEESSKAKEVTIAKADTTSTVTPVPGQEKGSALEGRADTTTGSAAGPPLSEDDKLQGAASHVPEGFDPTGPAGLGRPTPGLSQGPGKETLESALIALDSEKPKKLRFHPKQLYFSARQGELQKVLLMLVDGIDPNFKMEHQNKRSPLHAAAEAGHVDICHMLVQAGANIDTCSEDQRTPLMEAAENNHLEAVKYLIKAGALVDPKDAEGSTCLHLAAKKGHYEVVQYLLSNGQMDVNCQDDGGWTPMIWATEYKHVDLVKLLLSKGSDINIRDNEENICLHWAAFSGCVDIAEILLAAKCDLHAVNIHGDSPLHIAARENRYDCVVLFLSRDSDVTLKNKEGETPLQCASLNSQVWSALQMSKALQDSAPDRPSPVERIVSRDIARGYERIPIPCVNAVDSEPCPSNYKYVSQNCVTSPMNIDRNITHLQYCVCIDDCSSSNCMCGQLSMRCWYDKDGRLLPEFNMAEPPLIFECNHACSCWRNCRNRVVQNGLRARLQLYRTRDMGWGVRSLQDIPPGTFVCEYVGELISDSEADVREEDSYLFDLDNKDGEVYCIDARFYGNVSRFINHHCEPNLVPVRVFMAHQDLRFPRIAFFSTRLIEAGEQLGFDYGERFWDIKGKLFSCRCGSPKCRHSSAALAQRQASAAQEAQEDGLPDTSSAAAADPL
Assay: biochemical
Settings: read-out: DA3003-1 IC50; inhibitor

O=C1C(Cl)=C(NCCN2CCOCC2)C(=O)c2ncccc21 [DA3003-1]
pIC50: 4.44
